Test results as given in publication PMC12042267, “Expanding the Family of Monosubstituted 15-Membered Pyridine-Based Macrocyclic Ligands for Mn(II) Complexation in the Context of MRI” (Inorganic Chemistry, 2025).

How the values were obtained:
[1] = Stability constants of Mn(II) complexes by pH-potentiometry, pMn and species distribution; type: physicochemical; conditions: species distribution, [Mn(II)] = [L] = 1.5 mM
Protocol: Metal stock solutions were prepared from the highest analytical grade chemicals, and their concentration was determined by complexometric titration with standardized Na2H2EDTA, using xylenol orange indicator in the presence of urotropine buffer (ZnCl2 and MnCl2); Eriochrome black T indicator in the presence of ammonium acetate buffer (CaCl2) or murexide indicator in ammonium solution (CuCl2). The concentration of the ligand stock solutions was determined by pH-potentiometric titrations (the difference between two consecutive inflection points of the ligand titration curve corresponds to two (L2) or one (L3) ligand equivalents). To determine the protonation constants of the ligand and stability constants of the metal complexes with selected divalent metal ions, pH-potentiometric titrations were carried out with 0.1 M NaOH at 2 mM ligand concentration, in the absence (for ligand protonation constants) or in the presence of one equivalent of metal ion (for stability constants). During the titration, the waiting time was 2 min between successive points (V0 = 5 mL). The temperature (25.0 ± 0.1 °C) was controlled by a circulating water bath. The ionic strength was set to I = 0.15 M NaCl. All titrations were performed under a nitrogen atmosphere to avoid the effect of CO2. Titrations were carried out in the pH range from 1.8 (L3) or 2.0 (L2) (after the addition of 1 M HCl solution to the starting ligand solution in the titration cell) to pH 11 (or until precipitation of the metal hydroxide). All pH-potentiometric titrations were performed using a 785 DMP Titrino titration workstation with a combined electrode (Metrohm). The p[H] (p[H] = −log[H+], concentration in molarity) was measured in each titration with a combined pH glass electrode (Metrohm) filled with 3 M KCl. The electrode was calibrated in hydrogen ion concentration by titration of HCl with KOH in 0.1 M electrolyte solution.[37] A plot of potential versus p[H] allows determination of the electrode standard potential (E°) and the slope factor (f).
The protonation constants of the ligand (log Ki^H) are defined as follows [drawing 1] where i = 1, 2, ··· and [Hi–1L] and [H^+] are the equilibrium concentrations of the ligand (i = 1), its protonated forms (i = 2, ···), and the hydrogen ion. The stability (KML) and the protonation (KMHiL) constants for the metal complexes are defined as follows [drawing 2] [drawing 3] For the calculations of the equilibrium constants, the HYPERQUAD program was used.[38] The number of fitted data pairs was between 190 and 240. The ionic product of water at 25 °C and 0.1 M ionic strength is pKw = 13.77.[39] Fixed values were used for pKw, ligand acidity constants, and total concentrations of metal, ligand, and acid. All values and errors (one standard deviation) reported are at least the average of two independent experiments.
To obtain further information about the impact of a given pendant arm, it is interesting to calculate pMn values (pMn = −log[Mn(II)]free at pH 7.4, cMn = clig= 10^–5 M) which provide a more direct comparison of MnL stabilities, independently of differences in protonation constants (Table 4). […] Nevertheless, the too large, 15-membered macrocyclic cavity combined with a lower number of pendant arms provide ca. 2 orders of magnitude lower stability for Mn(II) complexation as compared to the 12-membered pyclen derivatives (Table 4).

[2] = 1H relaxivity (relaxometry, NMRD profiles); type: physicochemical; conditions: for r1 (relaxivity): 20 MHz, 0.47 T
Protocol: At 60 MHz, ^1H longitudinal (T1) and transverse (T2) relaxation times were measured with a Bruker Minispec MQ-60 NMR analyzer. The temperature was set to 25.0 °C and controlled with a circulating water bath. T1 and T2 values were determined, respectively, by using the inversion recovery method (180−τ–90°) and the Carl–Purcell–Meiboom–Gill (CPMG) spin–echo pulse sequence. […]
^1H NMRD profiles on aqueous solutions of MnL2 (cMn2+ = 0.98 mM; pH = 7.22) and MnL3 (cMn2+ = 0.96 mM; pH = 7.20) were recorded at 25 and 37 °C on a SMARTracer Fast Field Cycling NMR relaxometer (Stelar; 0.00024–0.24 T, 0.01–10 MHz ^1H Larmor frequency) and a WP80 NMR electromagnet adapted to variable-field measurements (Bruker; 0.47–1.88 T, 20–80 MHz ^1H Larmor frequency). The temperature was maintained by a gas flow and monitored by a VTC91 temperature control unit based on previous calibration with a Pt resistance temperature probe.

| pH above which full complex formation is achieved [1] | Structure (SMILES) | relaxivity (constant between pH 7 and 11) ([2]; 1.41 T and 25 °C, pH 7 to 11) | r1 (relaxivity) ([2]; 25 °C) | r1 (relaxivity) ([2]; 25 °C, listed as [Mn(L2)(H2O)]^+) | r1 (relaxivity) ([2]; 37 °C) | r1 (relaxivity) ([2]; 25 °C, listed as [Mn(L3)(H2O)]^+) |
| --- | --- | --- | --- | --- | --- | --- |
| > 6 | O.[Mn+2].c1ccc(CN2CCOCCOCCNCc3cccc(n3)C2)nc1 [MnL2] | 2.62 mM^–1 s^–1 | ~2.5 mM^–1 s^–1 | 2.49 mM^–1 s^–1 | 1.98 mM^–1 s^–1 |  |
| > 6 | O.[Mn+2].c1cc2nc(c1)CN(Cc1nc3ccccc3[nH]1)CCOCCOCCNC2 [MnL3] |  | ~2.5 mM^–1 s^–1 |  | 2.24 mM^–1 s^–1 | 2.77 mM^–1 s^–1 |
